For 24 compounds, Kd results are on record in patent US11319299B2, “Substituted carboxamides as inhibitors of WDR5 protein-protein binding” (PROPELLON THERAPEUTICS INC., priority 2016, dated 2022).

In the first assay the target is WDR5 (Homo sapiens (Human), UniProt P61964). Briefly: Surface Plasmon Resonance (SPR) assay, KD and residence time. It counts as binding. The conditions noted are these: surface plasmon resonance (SPR) assay; read-out: WDR5 binding affinity (KD).
For the compound `C[C@@H]1CN(c2ncc(-c3cc(NC(=O)c4c[nH]c(=O)cc4C(F)(F)F)c(N4CCN(C)[C@@H](C)C4)cc3F)cn2)CCO1` [Example 340, N-[4-fluoro-2-[(3S)-3,4-dimethylpiperazin-1-yl]-5-[2-[(2R)-2-methylmorpholin-4-yl]pyrimidin-5-yl]phenyl]-6-oxo-4-(trifluoromethyl)-1H-pyridine-3-carboxamide], the Kd – broadly, the concentration at which binding is half-saturated – was determined as 0.551 nM.
The same measure, in the same setting: to `C[C@@H]1CN(c2cc(F)c(C3=CCN(C(=O)OC(C)(C)C)C3)cc2NC(=O)c2c[nH]c(=O)cc2C(F)(F)F)C[C@H](C)N1C` [Example 323, tert-butyl 3-[2-fluoro-5-[[6-oxo-4-(trifluoromethyl)-1H-pyridine-3-carbonyl]amino]-4-[(3R,5S)-3,4,5-trimethylpiperazin-1-yl]phenyl]-2,5-dihydropyrrole-1-carboxylate] belongs 2.48 nM.
Same read-out and setting: the value for `C[C@@H]1CN(c2cc(F)c(-c3ccc(C#N)nc3)cc2NC(=O)c2c[nH]c(=O)cc2C(F)(F)F)C[C@H](C)N1C` [Example 131, N-[5-(6-cyanopyridin-3-yl)-4-fluoro-2-[(3R,5S)-3,4,5-trimethylpiperazin-1-yl]phenyl]-6-oxo-4-(trifluoromethyl)-1H-pyridine-3-carboxamide] was 2.43 nM; that for `C[C@@H]1CN(c2cc(F)c(C3=CCN(Cc4nccs4)CC3)cc2NC(=O)c2c[nH]c(=O)cc2C(F)(F)F)C[C@H](C)N1C` [Example 162, N-[4-fluoro-2-[(3R,5S)-3,4,5-trimethylpiperazin-1-yl]-5-[1-(1,3-thiazol-2-ylmethyl)-3,6-dihydro-2H-pyridin-4-yl]phenyl]-6-oxo-4-(trifluoromethyl)-1H-pyridine-3-carboxamide] was 2.83 nM.
The same measure, in the same setting: to `CCN(CC)c1ncc(-c2cc(NC(=O)c3c[nH]c(=O)cc3C(F)(F)F)c(N3C[C@@H](C)N(C)[C@@H](C)C3)cc2F)cn1` [Example 294, N-[5-[2-(diethylamino)pyrimidin-5-yl]-4-fluoro-2-[(3R,5S)-3,4,5-trimethylpiperazin-1-yl]phenyl]-6-oxo-4-(trifluoromethyl)-1H-pyridine-3-carboxamide] belongs 2.24 nM; to `COc1cccc(C(=O)Nc2cc(-c3cnc(N4CCOCC4)nc3)c(F)cc2N2C[C@@H](C)N(C)[C@@H](C)C2)c1F` [Example 110, 2-fluoro-N-[4-fluoro-5-(2-morpholin-4-ylpyrimidin-5-yl)-2-[(3R,5S)-3,4,5-trimethylpiperazin-1-yl]phenyl]-3-methoxybenzamide], 1730 nM.
As to `C[C@@H]1CN(c2cc(F)c(C3=CCN(c4ncc(F)cn4)CC3)cc2NC(=O)c2c[nH]c(=O)cc2C(F)(F)F)C[C@H](C)N1C` [Example 367, N-[4-fluoro-5-[1-(5-fluoropyrimidin-2-yl)-3,6-dihydro-2H-pyridin-4-yl]-2-[(3R,5S)-3,4,5-trimethylpiperazin-1-yl]phenyl]-6-oxo-4-(trifluoromethyl)-1H-pyridine-3-carboxamide], the equilibrium dissociation constant (Kd) is 1.04 nM.
The same measure, in the same setting: the value for `C[C@@H]1CN(c2cc(F)c(-c3cnc(N4CCOCC4)nc3)cc2NC(=O)c2cccc(F)c2C(F)(F)F)C[C@H](C)N1C` [Example 295, 3-fluoro-N-[4-fluoro-5-(2-morpholin-4-ylpyrimidin-5-yl)-2-[(3R,5S)-3,4,5-trimethylpiperazin-1-yl]phenyl]-2-(trifluoromethyl)benzamide] was 11.1 nM.
On the same count and under the same terms, the value for `COc1cc(C#N)c(C(=O)Nc2cc(-c3cnc(N4CCOCC4)nc3)c(F)cc2N2C[C@@H](C)N(C)[C@@H](C)C2)cn1` [Example 137, 4-cyano-N-[4-fluoro-5-(2-morpholin-4-ylpyrimidin-5-yl)-2-[(3R,5S)-3,4,5-trimethylpiperazin-1-yl]phenyl]-6-methoxypyridine-3-carboxamide] was 19.7 nM; that for `C[C@@H]1CN(c2cc(F)c(-c3cccc(CN4CCC(F)CC4)c3)cc2NC(=O)c2c[nH]c(=O)cc2C(F)(F)F)C[C@H](C)N1C` [Example 119, N-[4-fluoro-5-[3-[(4-fluoropiperidin-1-yl)methyl]phenyl]-2-[(3R,5S)-3,4,5-trimethylpiperazin-1-yl]phenyl]-6-oxo-4-(trifluoromethyl)-1H-pyridine-3-carboxamide] was 5.12 nM.

The same assay, now with this note: surface plasmon resonance (SPR); read-out: WDR5 binding affinity (KD).
In the case of `C[C@@H]1CN(c2cc(F)c(-c3c[nH]c(=O)c(F)c3)cc2NC(=O)c2c[nH]c(=O)cc2C(F)(F)F)C[C@H](C)N1C` [Example 562, N-[4-fluoro-5-(5-fluoro-6-oxo-1H-pyridin-3-yl)-2-[(3R,5S)-3,4,5-trimethylpiperazin-1-yl]phenyl]-6-oxo-4-(trifluoromethyl)-1H-pyridine-3-carboxamide], the Kd was determined as 0.904 nM.
Regarding `C[C@@H]1CN(c2cc(F)c(-c3cnn(CCN4CCOCC4)c3)cc2NC(=O)c2cn(C)c(=O)cc2C(F)F)C[C@H](C)N1C` [Example 717, 4-(difluoromethyl)-N-[4-fluoro-5-[1-(2-morpholin-4-ylethyl)pyrazol-4-yl]-2-[(3R,5S)-3,4,5-trimethylpiperazin-1-yl]phenyl]-1-methyl-6-oxopyridine-3-carboxamide], the Kd amounted to 21.6 nM.
Still for that read-out and setting: the value for `CC1CN(c2cc(F)c(C3=CCCN(c4ncc(C#N)s4)C3)cc2NC(=O)c2c[nH]c(=O)cc2C(F)F)CCN1C` (stereo in doubt) [Example 688, N-[5-[1-(5-cyano-1,3-thiazol-2-yl)-3,6-dihydro-2H-pyridin-5-yl]-4-fluoro-2-[(3R)-3,4-dimethylpiperazin-1-yl]phenyl]-4-(difluoromethyl)-6-oxo-1H-pyridine-3-carboxamide] was 2.49 nM; that for `C[C@@H]1CN(c2cc(F)c(-c3ccc(C(N)=O)c(F)c3)cc2NC(=O)c2cn(C)c(=O)cc2C(F)F)C[C@H](C)N1C` [Example 592, N-[5-(4-carbamoyl-3-fluorophenyl)-4-fluoro-2-[(3R,5S)-3,4,5-trimethylpiperazin-1-yl]phenyl]-4-(difluoromethyl)-1-methyl-6-oxopyridine-3-carboxamide] was 6.8 nM.
As to `C[C@@H]1CN(c2cc(F)c(-c3ccc(F)c(C(N)=O)c3)cc2NC(=O)c2c[nH]c(=O)cc2C(F)F)C[C@H](C)N1C` [Example 552, N-[5-(3-carbamoyl-4-fluorophenyl)-4-fluoro-2-[(3R,5S)-3,4,5-trimethylpiperazin-1-yl]phenyl]-4-(difluoromethyl)-6-oxo-1H-pyridine-3-carboxamide], the Kd stood at 3.1 nM.
`C[C@@H]1CN(c2nccc(-c3cc(NC(=O)c4c[nH]c(=O)cc4C(F)F)c(N4C[C@@H](C)N(C)[C@@H](C)C4)cc3F)n2)C[C@H](C)O1` [Example 744, 4-(difluoromethyl)-N-[4-fluoro-5-[2-[(2R,6S)-2,6-dimethylmorpholin-4-yl]pyrimidin-4-yl]-2-[(3S,5R)-3,4,5-trimethylpiperazin-1-yl]phenyl]-6-oxo-1H-pyridine-3-carboxamide]: the Kd was 2.76 nM.
Still for that read-out and setting: the value for `C[C@@H]1CN(c2cc(F)c(-c3ccc(N4CCO[C@@H](C)C4)nc3)cc2NC(=O)c2c[nH]c(=O)cc2C(F)(F)F)C[C@H](C)N1C` (racemic) [Example 434, N-[4-fluoro-5-[6-[(2R)-2-methylmorpholin-4-yl]pyridin-3-yl]-2-[(3S,5R)-3,4,5-trimethylpiperazin-1-yl]phenyl]-6-oxo-4-(trifluoromethyl)-1H-pyridine-3-carboxamide] was 0.617 nM.
The same measure, in the same setting: to `CN(CC1CC1)[C@@H]1CCN(c2cc(F)c(-c3cnc(N4CCOCC4)nc3)cc2NC(=O)c2c[nH]c(=O)cc2C(F)(F)F)C1` [Example 586, N-[4-fluoro-5-(2-morpholin-4-ylpyrimidin-5-yl)-2-[(3R)-3-[cyclopropylmethyl(methyl)amino]pyrrolidin-1-yl]phenyl]-6-oxo-4-(trifluoromethyl)-1H-pyridine-3-carboxamide] belongs 15.5 nM; to `C[C@@H]1CN(c2ccc(-c3cc(NC(=O)c4ccc(F)cc4C(F)(F)F)c(N4C[C@@H](C)N(C)[C@@H](C)C4)cc3F)cn2)C[C@H](C)O1` [Example 432, 4-fluoro-N-[4-fluoro-5-[6-[(2R,6S)-2,6-dimethylmorpholin-4-yl]pyridin-3-yl]-2-[(3S,5R)-3,4,5-trimethylpiperazin-1-yl]phenyl]-2-(trifluoromethyl)benzamide], 2.31 nM; to `C[C@H]1CN(c2cc(F)c(-c3cnc(N4CCOC[C@@H]4C)nc3)cc2NC(=O)c2cn(C)c(=O)cc2C(F)(F)F)CCN1C` (racemic) [Example 608, N-[4-fluoro-2-[(3R)-3,4-dimethylpiperazin-1-yl]-5-[2-[(3R)-3-methylmorpholin-4-yl]pyrimidin-5-yl]phenyl]-1-methyl-6-oxo-4-(trifluoromethyl)pyridine-3-carboxamide], 0.977 nM.
In the case of `C[C@@H]1CN(c2cc(F)c(-c3cnc4c(c3)CC(=O)N4)cc2NC(=O)c2c[nH]c(=O)cc2C(F)(F)F)C[C@H](C)N1C` [Example 566, N-[4-fluoro-5-(2-oxo-1,3-dihydropyrrolo[2,3-b]pyridin-5-yl)-2-[(3R,5S)-3,4,5-trimethylpiperazin-1-yl]phenyl]-6-oxo-4-(trifluoromethyl)-1H-pyridine-3-carboxamide], the Kd was 0.896 nM.
Same read-out and setting: the value for `CC(C)COC(=O)N1CC=C(c2cc(NC(=O)c3c[nH]c(=O)cc3C(F)(F)F)c(N3C[C@@H](C)N(C)[C@@H](C)C3)cc2F)C1` [Example 443, 2-methylpropyl 3-[2-fluoro-5-[[6-oxo-4-(trifluoromethyl)-1H-pyridine-3-carbonyl]amino]-4-[(3R,5S)-3,4,5-trimethylpiperazin-1-yl]phenyl]-2,5-dihydropyrrole-1-carboxylate] was 2.37 nM.
On the same count and under the same terms, to `CCN(C)[C@@H]1CCN(c2cc(F)c(-c3cnc(N4C[C@@H](C)O[C@@H](C)C4)nc3)cc2NC(=O)c2cn(C)c(=O)cc2C(F)(F)F)C1` (racemic) [Example 427, N-[4-fluoro-5-[2-[(2R,6S)-2,6-dimethylmorpholin-4-yl]pyrimidin-5-yl]-2-[(3S)-3-[ethyl(methyl)amino]pyrrolidin-1-yl]phenyl]-1-methyl-6-oxo-4-(trifluoromethyl)pyridine-3-carboxamide] belongs 5.59 nM; to `C[C@@H]1CN(c2cc(F)c(-c3cccc4scnc34)cc2NC(=O)c2c[nH]c(=O)cc2C(F)(F)F)C[C@H](C)N1C` [Example 677, N-[5-(1,3-benzothiazol-4-yl)-4-fluoro-2-[(3R,5S)-3,4,5-trimethylpiperazin-1-yl]phenyl]-6-oxo-4-(trifluoromethyl)-1H-pyridine-3-carboxamide], 5.29 nM.
